The text below walks through data of patent US8163771B2, “11 β-HSD1 modulators” (Exelixis, Inc., priority 2008, dated 2012).

The target of the assay is T1, recombinant human 11 β-HSD1 (Homo sapiens, UniProt P28845).
T1 construct: made in house; host or cells: E. coli
T1 sequence (P28845 whole entry): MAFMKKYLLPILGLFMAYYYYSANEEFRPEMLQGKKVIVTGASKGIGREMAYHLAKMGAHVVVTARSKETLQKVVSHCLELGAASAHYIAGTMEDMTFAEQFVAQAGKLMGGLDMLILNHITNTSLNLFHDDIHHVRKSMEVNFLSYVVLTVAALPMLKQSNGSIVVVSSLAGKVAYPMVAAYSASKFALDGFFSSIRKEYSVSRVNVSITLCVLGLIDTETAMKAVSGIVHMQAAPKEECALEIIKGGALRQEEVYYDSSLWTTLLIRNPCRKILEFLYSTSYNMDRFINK
Kind of assay: 11 β-HSD1 SPA Assay (Scintillation Proximity Assay). The format is biochemical. The method in brief:
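E. coli-expressed human enzyme (30-100 nM) with tritiated cortisone 40 nM and NADPH 1 mM in HEPES buffer pH7.4, 2 hours at room temperature. Stopped with protein A SPA beads carrying anti-cortisol antibody and glycyrrhetinic acid; counted after overnight incubation. IC50 from percent inhibition between no-enzyme and no-compound signals.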
On the technique in general: SPA uses beads or plates that emit light when radiolabelled molecules are held near them.
A word on the IC50: it is the concentration needed to halve the response being measured. With `CC(C)(Oc1ccc(Cl)cc1Cl)C(=O)N[C@H]1C[C@H]2CC[C@@H](C1)N2c1ccc(C(=O)NC2CCSCC2)cn1` [Example 380, 6-(3-endo-{[2-(2,4-dichlorophenoxy)-2-methylpropanoyl]amino}-8-azabicyclo[3.2.1]oct-8-yl)-N-(tetrahydro-2H-thiopyran-4-yl)pyridine-3-carboxamide], the IC50 is less than 0.2 µM.
Turning to `CC(C)(Oc1cc(C(C)(C)O)c(Cl)cc1Cl)C(=O)NC1CC2CCC(C1)N2c1ccc(C(=O)NCC(O)C(F)(F)F)cn1` (stereo not drawn) [Example 381, 6-[3-endo-({2-[2,4-dichloro-5-(2-hydroxypropan-2-yl)phenoxy]-2-methylpropanoyl}amino)-8-azabicyclo[3.2.1]oct-8-yl]-N-(3,3,3-trifluoro-2-hydroxypropyl)pyridine-3-carboxamide], the IC50 is less than 0.2 µM.
In the case of `COCCOc1cc(OC(C)(C)C(=O)N[C@H]2C[C@H]3CC[C@@H](C2)N3c2ccc(C(=O)NCC(F)(F)F)cn2)c(Cl)cc1Cl` [Example 382, 6-[3-endo-({2-[2,4-dichloro-5-(2-methoxyethoxy)phenoxy]-2-methylpropanoyl}amino)-8-azabicyclo[3.2.1]oct-8-yl]-N-(2,2,2-trifluoroethyl)pyridine-3-carboxamide], the IC50 was less than 0.2 µM.
`CC(C)(Oc1ccc(Cl)cc1CCO)C(=O)N[C@H]1C[C@H]2CC[C@@H](C1)N2c1ccc(C(=O)NCC(F)(F)F)cn1` [Example 383, 6-[3-endo-({2-[4-chloro-2-(2-hydroxyethyl)phenoxy]-2-methylpropanoyl}amino)-8-azabicyclo[3.2.1]oct-8-yl]-N-(2,2,2-trifluoroethyl)pyridine-3-carboxamide]: the IC50 is less than 0.2 µM.
Consider `CC(C)(Oc1ccc(Cl)cc1Cl)C(=O)N[C@H]1C[C@H]2CC[C@@H](C1)N2c1ccc(C(=O)NC2(CO)CC2)cn1` [Example 384, 6-(3-endo-{[2-(2,4-dichlorophenoxy)-2-methylpropanoyl]amino}-8-azabicyclo[3.2.1]oct-8-yl)-N-[1-(hydroxymethyl)cyclopropyl] pyridine-3-carboxamide], for which the half-maximal inhibitory concentration (IC50) is less than 0.2 µM.
On to `CC(C)(Oc1cccc2[nH]ncc12)C(=O)N[C@H]1C[C@H]2CC[C@@H](C1)N2c1ccc(C(=O)NCC(F)(F)F)cn1` [Example 385, 6-(3-endo-{[2-(1H-indazol-4-yloxy)-2-methylpropanoyl]amino}-8-azabicyclo[3.2.1]oct-8-yl)-N-(2,2,2-trifluoroethyl)pyridine-3-carboxamide], for which the half-maximal inhibitory concentration (IC50) was less than 0.2 µM.
Turning to `CC(C)(Oc1ccc(Cl)cc1Cl)C(=O)N[C@H]1C[C@H]2CC[C@@H](C1)N2c1ccc(C(=O)Nc2ccon2)cn1` [Example 386, 6-(3-endo-{[2-(2,4-dichlorophenoxy)-2-methylpropanoyl]amino}-8-azabicyclo[3.2.1]oct-8-yl)-N-(isoxazol-3-yl)pyridine-3-carboxamide], the 50% inhibitory concentration (IC50) is less than 0.2 µM.
In the case of `CC(C)(Oc1ccc(Cl)cc1OCCn1ccnc1)C(=O)N[C@H]1C[C@H]2CC[C@@H](C1)N2c1ccc(C(=O)NCC(F)(F)F)cn1` [Example 387, 6-{3-endo-[(2-{4-chloro-2-[2-(1H-imidazol-1-yl)ethoxy]phenoxy}-2-methylpropanoyl)amino]-8-azabicyclo[3.2.1]oct-8-yl}-N-(2,2,2-trifluoroethyl)pyridine-3-carboxamide], the concentration for half-maximal inhibition (IC50) was less than 2 µM.
On to `CC(C)(Oc1ccc(Cl)cc1S(N)(=O)=O)C(=O)N[C@H]1C[C@H]2CC[C@@H](C1)N2c1ccc(C(=O)NCC(F)(F)F)cn1` [Example 388, 6-(3-endo-{[2-(4-chloro-2-sulfamoylphenoxy)-2-methylpropanoyl]amino}-8-azabicyclo[3.2.1]oct-8-yl)-N-(2,2,2-trifluoroethyl)pyridine-3-carboxamide], for which the IC50 is less than 2 µM.
Under `CC(C)(Oc1ccc(Cl)cc1OCCO)C(=O)N[C@H]1C[C@H]2CC[C@@H](C1)N2c1ccc(C(=O)NCC(F)(F)F)cn1` [Example 389, 6-[3-endo-({2-[4-chloro-2-(2-hydroxyethoxy)phenoxy]-2-methylpropanoyl}amino)-8-azabicyclo[3.2.1]oct-8-yl]-N-(2,2,2-trifluoroethyl)pyridine-3-carboxamide] stands less than 0.2 µM; under `CC(C)(Oc1cccc2cc[nH]c12)C(=O)N[C@H]1C[C@H]2CC[C@@H](C1)N2c1ccc(C(=O)NCC(F)(F)F)cn1` [Example 390, 6-(3-endo-{[2-(1H-indol-7-yloxy)-2-methylpropanoyl]amino}-8-azabicyclo[3.2.1]oct-8-yl)-N-(2,2,2-trifluoroethyl)pyridine-3-carboxamide], less than 0.2 µM.
Take `CC(C)(Oc1ccc(C(C)(C)O)cc1Cl)C(=O)N[C@H]1C[C@H]2CC[C@@H](C1)N2c1ccc(C(=O)NCC(F)(F)F)cn1` [Example 391, 6-[3-endo-({2-[2-chloro-4-(2-hydroxypropan-2-yl)phenoxy]-2-methylpropanoyl}amino)-8-azabicyclo[3.2.1]oct-8-yl]-N-(2,2,2-trifluoroethyl)pyridine-3-carboxamide]: the IC50 is less than 0.2 µM.
Turning to `CC(C)(Oc1cc(OCCO)c(Cl)cc1Cl)C(=O)NC1CC2CCC(C1)N2c1ccc(C(=O)NC2CC2(F)F)cn1` (stereo not drawn) [Example 392, 6-[3-endo-({2-[2,4-dichloro-5-(2-hydroxyethoxy)phenoxy]-2-methylpropanoyl}amino)-8-azabicyclo[3.2.1]oct-8-yl]-N-(2,2-difluorocyclopropyl)pyridine-3-carboxamide], the IC50 was less than 0.2 µM.
Turning to `CC(C)(Oc1ccc(Cl)cc1C(F)F)C(=O)NC1CC2CCC(C1)N2c1ccc(C(=O)NC2CC2(F)F)cn1` (stereo not drawn) [Example 393, 6-[3-endo-({2-[4-chloro-2-(difluoromethyl)phenoxy]-2-methylpropanoyl}amino)-8-azabicyclo[3.2.1]oct-8-yl]-N-(2,2-difluorocyclopropyl)pyridine-3-carboxamide], the 50% inhibitory concentration (IC50) is less than 0.2 µM.
For `CC(C)(Oc1ccc(Cl)cc1OC(F)(F)F)C(=O)NC1CC2CCC(C1)N2c1ccc(C(=O)NC2CC2(F)F)cn1` (stereo not drawn) [Example 394, 6-[3-endo-({2-[4-chloro-2-(trifluoromethoxy)phenoxy]-2-methylpropanoyl}amino)-8-azabicyclo[3.2.1]oct-8-yl]-N-(2,2-difluorocyclopropyl)pyridine-3-carboxamide], the IC50 is less than 0.2 µM.
`CC(C)(CO)NC(=O)c1ccc(N2[C@@H]3CC[C@H]2C[C@@H](NC(=O)C(C)(C)Oc2ccc(Cl)cc2Cl)C3)nc1` [Example 395, 6-(3-endo-{[2-(2,4-dichlorophenoxy)-2-methylpropanoyl]amino}-8-azabicyclo[3.2.1]oct-8-yl)-N-(1-hydroxy-2-methylpropan-2-yl)pyridine-3-carboxamide]: the half-inhibitory concentration (IC50) was less than 0.2 µM.
With `CC(C)(O)CNC(=O)c1ccc(N2[C@@H]3CC[C@H]2C[C@@H](NC(=O)C(C)(C)Oc2ccc(Cl)cc2Cl)C3)nc1` [Example 396, 6-(3-endo-{[2-(2,4-dichlorophenoxy)-2-methylpropanoyl]amino}-8-azabicyclo[3.2.1]oct-8-yl)-n-(2-hydroxy-2-methylpropyl)pyridine-3-carboxamide], the half-inhibitory concentration (IC50) was less than 0.2 µM.
On to `C[C@@H](CO)NC(=O)c1ccc(N2C3CCC2CC(NC(=O)C(C)(C)Oc2ccc(Cl)cc2Cl)C3)nc1` (stereo partly drawn) [Example 397, 6-(3-endo-{[2-(2,4-dichlorophenoxy)-2-methylpropanoyl]amino}-8-azabicyclo[3.2.1]oct-8-yl)-N-[(2S)-1-hydroxypropan-2-yl]pyridine-3-carboxamide], for which the half-maximal inhibitory concentration (IC50) is less than 0.2 µM.
The same measure for `C[C@H](CO)NC(=O)c1ccc(N2C3CCC2CC(NC(=O)C(C)(C)Oc2ccc(Cl)cc2Cl)C3)nc1` (stereo partly drawn) [Example 398, 6-(3-endo-{[2-(2,4-dichlorophenoxy)-2-methylpropanoyl]amino}-8-azabicyclo[3.2.1]oct-8-yl)-N-[(2R)-1-hydroxypropan-2-yl]pyridine-3-carboxamide]: less than 0.2 µM.
Turning to `CC(C)(Oc1ncc(Cl)cc1Cl)C(=O)NC1CC2CCC(C1)N2c1ccc(C(=O)NC2CC2(F)F)cn1` (stereo not drawn) [Example 399, 6-(3-endo-(2-(3,5-dichloropyridin-2-yloxy)-2-methylpropanamido)-8-azabicyclo[3.2.1]octan-8-yl)-N-(2,2-difluorocyclopropyl) nicotinamide], the IC50 was less than 0.2 µM.
Turning to `CC(C)NC(=O)c1ccc(N2[C@@H]3CC[C@H]2C[C@@H](NC(=O)C(C)(C)Oc2ncc(Cl)cc2Cl)C3)nc1` [Example 400, 6-(3-endo-(2-(3,5-dichloropyridin-2-yloxy)-2-methylpropanamido)-8-azabicyclo[3.2.1]octan-8-yl)-N-isopropylnicotinamide], the IC50 is less than 0.2 µM.
Consider `CC(C)(Oc1ccc(Cl)cc1OC(F)(F)F)C(=O)N[C@H]1C[C@H]2CC[C@@H](C1)N2c1ccc(C(=O)NCC(F)F)cn1` [Example 401, 6-(3-endo-(2-(4-chloro-2-(trifluoromethoxy)phenoxy)-2-methylpropanamido)-8-azabicyclo[3.2.1]octan-8-yl)-N-(2,2-difluoroethyl)nicotinamide], for which the IC50 was less than 0.2 µM.
On to `CC(C)(Oc1cc(OCCO)c(Cl)cc1Cl)C(=O)N[C@H]1C[C@H]2CC[C@@H](C1)N2c1ccc(C(=O)NCC(F)F)cn1` [Example 402, 6-(3-endo-(2-(2,4-dichloro-5-(2-hydroxyethoxy)phenoxy)-2-methylpropanamido)-8-azabicyclo[3.2.1]octan-8-yl)-N-(2,2-difluoroethyl)nicotinamide], for which the IC50 was less than 0.2 µM.
As for `CC(C)(Oc1ccc(Cl)cc1C(F)F)C(=O)N[C@H]1C[C@H]2CC[C@@H](C1)N2c1ccc(C(=O)NC2(CO)CC2)cn1` [Example 403, 6-(3-endo-(2-(4-chloro-2-(difluoromethyl)phenoxy)-2-methylpropanamido)-8-azabicyclo[3.2.1]octan-8-yl)-N-(1-(hydroxymethyl)cyclopropyl) nicotinamide], the IC50 is less than 0.2 µM.
In the case of `CC(C)(Oc1ccc(Cl)cc1C(F)F)C(=O)N[C@H]1C[C@H]2CC[C@@H](C1)N2c1ccc(C(=O)Nc2ccon2)cn1` [Example 404, 6-(3-endo-(2-(4-chloro-2-(difluoromethyl)phenoxy)-2-methylpropanamido)-8-azabicyclo[3.2.1]octan-8-yl)-N-(isoxazol-3-yl)nicotinamide], the IC50 is less than 0.2 µM.
